Measured values as given in patent US11596641B2, “Methods and compositions for treating meibomian gland dysfunction” (priority 2020, dated 2023).
Counter-ions that a name gives are not always drawn. Like-named read-outs stand apart in the source and are kept apart here.

Test: pKa values
Format: physicochemical

Structure (SMILES) | pKa value (third printed) (third of three pKa values, hydrochloride) | pKa (first of three pKa values, read-out: pKa value (first given)) | pKa (second of three pKa values, read-out: pKa value) | pKa (third of three pKa values, read-out: pKa value (third printed))
CN(C)c1ccc(O)c2c1C[C@H]1C[C@H]3[C@H](N(C)C)C(O)=C(C(N)=O)C(=O)[C@@]3(O)C(O)=C1C2=O [minocycline hydrochloride] | 9.3 |  |  | 
CN(C)c1ccc(O)c2c1C[C@H]1C[C@H]3[C@H](N(C)C)C(O)=C(C(N)=O)C(=O)[C@@]3(O)C(O)=C1C2=O [minocycline] |  | 3.5 | 7.6 | 9.2
